What was measured:
STING [1] = biological target: T1, STING (Homo sapiens, UniProt Q86WV6, G230A/H232R/R293Q/R71H); test: qPCR analysis of mRNA levels of cytokine gene expression (IFNB, ISG15, CXCL10) in THP-1 cells; type: cell-based; conditions: 10 μM compound, 6 h, vs DMSO
T1 construct: Human monocyte cell THP-1 were purchased from ATCC (Catalog No. TIB-202); host or cells: THP-1 human monocyte cells
Protocol: qPCR analysis of mRNA levels of cytokine gene expression in THP-1 cell Human monocyte cell THP-1 were purchased from ATCC (Catalog No. TIB-202). The complete growth medium was made with ATCC-formulated RPMI-1640 Medium (Catalog No. 30-2001) and supplemented with 2-mercaptoethanol to a final concentration of 0.05 mM, and fetal bovine serum (FBS) to a final concentration of 10%.
To evaluate the agonistic effects of chemicals on STING, the gene expression of IFNB, ISG15 and CXCL10 in human monocyte THP-1 cells was measured by real time qPCR. After the treatment of 10 μM Compounds for 6 hrs, cells were respectively lysed by TRIzol reagents (from Invitrogen). Total RNA was extracted according to the manufacturer's instruction. mRNA concentration was measured via 3rd generation NanoDrop machine. 1 μg of mRNA was used for the reverse transcription reaction with random primer, dNTP mix, RNase inhibitor and M-MuLV Reverse Transcriptase. SYBR green supermix and hot start DNA polymerase were used in qPCR with TBP gene as an internal control. Gene-specific primers were purchase from Integrated DNA Technologies.

[2] = test system: CT-26 mouse colon adenocarcinoma; test: Antitumor efficacy in s.c. CT-26 mouse colon adenocarcinoma model; type: in vivo, BALB/c mice
Protocol: Evaluation of Antitumor Efficacy in CT-26 Mouse Model
Six- to eight-week-old male BALB/c mice of 18-20 g were purchased from Taconic Biosciences (La Jolla, CA). Mouse colon carcinoma CT-26 (from ATCC) cells were maintained in RPMI-1640 medium supplemented with 10% fetal bovine serum (FBS), 100 U/ml penicillin and 100 μg/ml streptomycin, and incubated at 37° C. and 5% CO2. The cells growing in an exponential growth phase were harvested and counted for tumor inoculation. Each mouse was inoculated subcutaneously at the left and the right flank with 5×10^4 CT-26 tumor cells in 0.1 ml of serum-free medium for tumor development.
Mice were randomized into study groups with 8 mice/group when average tumor volume was ˜70 mm^3. […] Tumor size and body weight were measured twice per week throughout the study. Tumor volume was calculated by applying length and width caliper measurements to the following formula: TV=0.5*L*W^2. Percent treated/control (T/C) value was calculated as 100×ΔT/ΔC (when ΔT>0) or 100×ΔT/Tsd (when ΔT<0) where ΔT and ΔC are the changes in the mean tumor volumes between the indicated day and the first day of measurement for the treatment and control groups, respectively. […] Statistical analyses of the differences in tumor volume among the groups were evaluated using a one-way ANOVA. […]

[3] = Tolerability and body weight in CT-26 mouse model; type: in vivo; conditions: 3×1.5 mg/kg IP, BALB/c mice bearing CT-26
Protocol: Mice were randomized into study groups with 8 mice/group when average tumor volume was ˜70 mm^3. On day 1, 4 and 8 mice were dosed with vehicle or 1.5 mg/kg Cpd 4 (Example 4) in 5% DMSO, 45% PEG400, and […] formulation by intraperitoneal injection. Tumor size and body weight were measured twice per week throughout the study. Tumor volume was calculated by applying length and width caliper measurements to the following formula: TV=0.5*L*W^2. Percent treated/control (T/C) value was calculated as 100×ΔT/ΔC (when ΔT>0) or 100×ΔT/Tsd (when ΔT<0) where ΔT and ΔC are the changes in the mean tumor volumes between the indicated day and the first day of measurement for the treatment and control groups, respectively. Tsd is the first day mean tumor volume of the treated group. Statistical analyses of the differences in tumor volume among the groups were evaluated using a one-way ANOVA. All data were analyzed using GraphPad Prism 8 (GraphPad Software, San Diego, CA). p<0.05 was considered to be statistically significant.

STING [4] = biological target: T1, STING; test: Western blot analysis of activated STING and its downstream protein phosphorylation in THP-1 cells; type: cell-based; conditions: 10 μM compound, 3 h, vs DMSO
Protocol: The Western blot analysis of activated STING and its downstream protein phosphorylation in human monocyte THP-1 cells
Human monocyte cell THP-1 were purchased from ATCC (Catalog No. TIB-202). The complete growth medium was made with ATCC-formulated RPMI-1640 Medium (Catalog No. 30-2001) and supplemented with 2-mercaptoethanol to a final concentration of 0.05 mM, and fetal bovine serum (FBS) to a final concentration of 10%.
After the THP-1 cells were treated with the 10 μM invented compounds for 3 hours, the cells were lysed by RIPA buffer, followed by washing with PBS. The total protein concentration was measured by BCA protein assay. The 10 μg protein sample was loaded after mixing with SDS-PAGE protein loading buffer, separated on SDS-PAGE and transferred to a PVDF membrane using the semi-dry transfer apparatus. After blocking with 5% BSA for 1 hr, the membrane was incubated with 1st antibodies overnight at 4° C., followed by incubation with HRP-conjugated 2nd antibodies (Catalog No. WBULS0100 from Millipore) for another 1 hr at room temperature. Lastly, the immunocomplexes were detected via the Bio-Rad ChemiDoc Touch Imaging System. Antibodies for western blotting were purchased from Cell Signaling Technology, catalog numbers 19781 (p-STING Ser366), 13647 (STING), 5483 (p-TBK1 Ser 172), 3504 (TBK1), 4947 (p-IRF3 Ser396), 4302 (IRF3) and 7074 (HRP-linked anti-rabbit IgG).

T1 sequence (Q86WV6 whole entry R71H/G230A/H232R/R293Q): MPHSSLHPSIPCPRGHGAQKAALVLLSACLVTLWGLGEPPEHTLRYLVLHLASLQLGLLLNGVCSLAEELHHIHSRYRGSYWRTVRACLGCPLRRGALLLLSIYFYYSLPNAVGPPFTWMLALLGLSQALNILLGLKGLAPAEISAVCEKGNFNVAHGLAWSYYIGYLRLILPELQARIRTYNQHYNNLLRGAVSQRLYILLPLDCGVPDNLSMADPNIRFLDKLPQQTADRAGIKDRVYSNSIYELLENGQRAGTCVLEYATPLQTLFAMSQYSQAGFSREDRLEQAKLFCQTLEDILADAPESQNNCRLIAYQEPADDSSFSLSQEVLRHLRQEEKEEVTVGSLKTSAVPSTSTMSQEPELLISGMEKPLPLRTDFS

Compound | mRNA level of CXCL10 (STING [1]) | mRNA level of IFNB (STING [1]) | mRNA level of ISG15 (STING [1]) | tumor growth rate of treated/control (T/C) ([2]; 3×1.5 mg/kg IP (day 1, 4, 8), day 12, s.c. CT-26 in BALB/c mice) | antitumor efficacy (tumor volume) ([2]; 3×1.5 mg/kg IP, s.c. CT-26 in BALB/c mice) | body weight [3] | tolerability [3] | p-IRF3 level (STING [4]) | p-TBK1 level (STING [4]) | phosphorylated STING (p-STING) level (STING [4])
CCn1nc(C)cc1C(=O)Nc1nc2cc(C(N)=O)cnc2n1C/C=C/Cn1c(NC(=O)c2cc(C)nn2CC)nc2cc(C(N)=O)cc(OCCCN3CCOCC3)c21 [Example 4, (E)-3-(4-(5-carbamoyl-2-(1-ethyl-3-methyl-1H-pyrazole-5-carboxamido)-7-(3-morpholinopropoxy)-1H-benzo[d]imidazol-1-yl)but-2-en-1-yl)-2-(l-ethyl-3-methyl-1H-pyrazole-5-carboxamido)-3H-imidazo[4,5-b]pyridine-6-carboxamide] | significantly upregulated | significantly upregulated | significantly upregulated | 19% | highly potent | no bodyweight loss | well-tolerated | higher levels | higher levels | higher levels
CCn1nc(C)cc1C(=O)/N=c1\n(C)c2cc(C(N)=O)cnc2n1C/C=C/Cn1/c(=N/C(=O)c2cc(C)nn2CC)n(C)c2cc(C(N)=O)cc(OCCCN3CCOCC3)c21 [Example 6, (E)-3-((E)-4-((E)-5-carbamoyl-2-((1-ethyl-3-methyl-1H-pyrazole-5-carbonyl)imino)-3-methyl-7-(3-morpholinopropoxy)-2,3-dihydro-1H-benzo[d]imidazol-1-yl)but-2-en-1-yl)-2-((1-ethyl-3-methyl-1H-pyrazole-5-carbonyl)imino)-1-methyl-2,3-dihydro-1H-imidazo[4,5-b]pyridine-6-carboxamide] | significantly upregulated | significantly upregulated | significantly upregulated | – | – | – | – | – | – | –
CCn1nc(C)cc1C(=O)Nc1nc2cc(C(N)=O)cnc2n1C/C=C/Cn1c(NC(=O)c2cc(C)nn2CC)nc2cc(C(N)=O)cc(OCCCN3CCNCC3)c21 [Example 8, (E)-3-(4-(5-carbamoyl-2-(1-ethyl-3-methyl-1H-pyrazole-5-carboxamido)-7-(3-(piperazin-1-yl)propoxy)-1H-benzo[d]imidazol-1-yl)but-2-en-1-yl)-2-(1-ethyl-3-methyl-1H-pyrazole-5-carboxamido)-3H-imidazo[4,5-b]pyridine-6-carboxamide] | significantly upregulated | significantly upregulated | significantly upregulated | – | – | – | – | higher levels | higher levels | higher levels
CCn1nc(C)cc1C(=O)Nc1nc2cc(C(N)=O)cnc2n1C/C=C/Cn1c(NC(=O)c2cc(C)nn2CC)nc2cc(C(N)=O)cc(OCCN3CCOCC3)c21 [Example 10, (E)-3-(4-(5-carbamoyl-2-(1-ethyl-3-methyl-1H-pyrazole-5-carboxamido)-7-(2-morpholinoethoxy)-1H-benzo[d]imidazol-1-yl)but-2-en-1-yl)-2-(1-ethyl-3-methyl-1H-pyrazole-5-carboxamido)-3H-imidazo[4,5-b]pyridine-6-carboxamide] | significantly upregulated | significantly upregulated | significantly upregulated | – | – | – | – | higher levels | higher levels | higher levels

From patent publication US20240132493A1, “IMIDAZOPYRIDINE DERIVATIVES AS STING AGONISTS” (Fulgent Genetics, Inc., priority 2021, published 2024)
